Laboratory results as given in patent publication US10799605B2 (3B PHARMACEUTICALS GMBH, priority 2014, dated 2020).
Where two headings read alike, the source gives them in different places.

Experiments:
NTR1 = NTR1 (Homo sapiens (Human), UniProt P30989); assay: Radioligand binding assay NTR1 (example part II); conditions: 0.05 nM 125I-(Tyr3-neurotensin), 60 min at 4° C.; read-out: IC50 [nM] RLB
Outline: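 Membranes from CHO cells recombinantly expressing human NTR1 incubated with 0.05 nM 125I-(Tyr3-neurotensin) and serially diluted test compounds. Bound radioligand quantified by scintillation counting; displacement expressed as IC50.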

[1] = Plasma stability assay, human plasma; format: in vitro ADME
Description: (§1) The plasma stability assay was performed to measure the degradation of compounds of the present invention in plasma. This is an important characteristic of a compound as compounds, with the exception of pro-drugs, which rapidly degrade in plasma generally show poor in vivo efficacy.
(§2) The plasma was spiked with a 10 mM analyte solution in dimethyl sulfoxide to a final concentration of 10 μM, vortexed, and aliquotted to 50 μl samples. Two aliquots were stored at −20° C. until further treatment. Another two aliquots were incubated using an Eppendorf Thermomixer at 37° C. for 1, 4, and 24 hours. Sample clean-up was performed using a protein precipitation plate (Phenomenex Strata Impact, 64722-1-324-1) and using acetonitrile as precipitation agent. […] An aliquot of 10 μl was diluted with 90 μl 0.1% aqueous trifluoroacetic acid solution. The determination of the analyte in the clean sample solutions was performed on a Thermo TSQ Quantum Ultra triple quadrupole mass spectrometer equipped with a thermo Surveyor HPLC. The chromatographic separation was carried out on a Phenomenex Kinetex XB-C18 HPLC column (50×2 mm, […] particle size) with gradient elution using a mixture of 0.01% trifluoroacetic acid and 0.05% formic acid in water as eluent A and methanol as eluent B (20% B to 100% in 8 min, 400 μl/min, 40° C.). For mass spectrometric detection the selected reaction monitoring (SRM) was used.
(§3) Quantitation was performed by external matrix calibration using an internal standard.

[2] = Plasma stability assay, mouse plasma; format: in vitro ADME
Description: as §1, §2, §3

AT1 (h) = AT1 (h) (Homo sapiens (Human), UniProt P30556); assay: ExpresSProfile: angiotensin receptor 1, antagonist radioligand; format: binding; conditions: Test Concentration 1.0E−05 M
Sequence of AT1 (h) (P30556 whole entry): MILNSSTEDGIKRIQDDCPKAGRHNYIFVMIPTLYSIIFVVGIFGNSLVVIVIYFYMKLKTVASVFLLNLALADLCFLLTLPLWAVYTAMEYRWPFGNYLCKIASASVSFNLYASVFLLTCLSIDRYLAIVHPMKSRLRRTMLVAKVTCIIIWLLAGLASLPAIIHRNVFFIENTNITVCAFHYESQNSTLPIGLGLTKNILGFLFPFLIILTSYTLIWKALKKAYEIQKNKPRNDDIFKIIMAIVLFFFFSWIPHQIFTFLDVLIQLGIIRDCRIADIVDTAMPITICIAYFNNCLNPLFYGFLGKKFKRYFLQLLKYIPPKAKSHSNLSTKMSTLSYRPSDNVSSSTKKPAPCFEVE

GAL2 (h) = GAL2 (h) (Homo sapiens (Human), UniProt O43603); assay: ExpresSProfile: galanin receptor 2, agonist radioligand; format: binding; conditions: Test Concentration 1.0E−05 M
Sequence of GAL2 (h) (O43603 whole entry): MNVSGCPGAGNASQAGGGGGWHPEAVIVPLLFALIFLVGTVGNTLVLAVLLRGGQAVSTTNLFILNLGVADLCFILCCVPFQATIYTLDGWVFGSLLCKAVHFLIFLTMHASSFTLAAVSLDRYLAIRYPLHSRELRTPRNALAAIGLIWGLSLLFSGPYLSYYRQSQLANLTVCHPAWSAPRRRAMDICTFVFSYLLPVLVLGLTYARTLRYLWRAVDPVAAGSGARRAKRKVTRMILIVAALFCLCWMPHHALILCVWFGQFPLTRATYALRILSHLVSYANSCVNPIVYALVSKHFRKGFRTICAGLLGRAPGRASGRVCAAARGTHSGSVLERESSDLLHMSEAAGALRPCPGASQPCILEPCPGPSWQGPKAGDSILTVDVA

H2 (h) = H2 (h) (Homo sapiens (Human), UniProt P25021); assay: ExpresSProfile: histamine receptor 2, antagonist radioligand; format: binding; conditions: Test Concentration 1.0E−05 M
Sequence of H2 (h) (P25021 whole entry): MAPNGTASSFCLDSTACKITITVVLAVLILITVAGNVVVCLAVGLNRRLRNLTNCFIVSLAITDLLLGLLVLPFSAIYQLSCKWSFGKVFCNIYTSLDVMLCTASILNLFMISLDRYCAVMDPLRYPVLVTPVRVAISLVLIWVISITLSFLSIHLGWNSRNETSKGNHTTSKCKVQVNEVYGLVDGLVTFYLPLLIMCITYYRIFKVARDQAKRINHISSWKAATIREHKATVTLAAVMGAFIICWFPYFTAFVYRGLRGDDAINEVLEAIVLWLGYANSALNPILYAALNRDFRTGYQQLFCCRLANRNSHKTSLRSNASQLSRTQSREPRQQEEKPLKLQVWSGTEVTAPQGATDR

Y1 (h) = Y1 (h) (Homo sapiens (Human), UniProt P25929); assay: ExpresSProfile: neuropeptide Y receptor 1, agonist radioligand; format: binding; conditions: Test Concentration 1.0E−05 M
Sequence of Y1 (h) (P25929 whole entry): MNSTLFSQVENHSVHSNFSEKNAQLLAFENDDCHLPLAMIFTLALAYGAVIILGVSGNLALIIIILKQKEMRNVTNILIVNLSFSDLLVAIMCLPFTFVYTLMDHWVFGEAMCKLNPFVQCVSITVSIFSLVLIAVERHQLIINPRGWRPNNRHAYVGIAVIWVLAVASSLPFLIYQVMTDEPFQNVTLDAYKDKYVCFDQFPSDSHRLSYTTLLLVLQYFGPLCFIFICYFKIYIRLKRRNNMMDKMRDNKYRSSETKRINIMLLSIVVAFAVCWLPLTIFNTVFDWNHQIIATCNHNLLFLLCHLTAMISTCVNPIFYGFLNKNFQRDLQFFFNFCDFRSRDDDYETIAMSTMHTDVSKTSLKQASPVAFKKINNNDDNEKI

Y2 (h) = Y2 (h) (Homo sapiens (Human), UniProt P49146); assay: ExpresSProfile: neuropeptide Y receptor 2, agonist radioligand; format: binding; conditions: Test Concentration 1.0E−05 M
Sequence of Y2 (h) (P49146 whole entry): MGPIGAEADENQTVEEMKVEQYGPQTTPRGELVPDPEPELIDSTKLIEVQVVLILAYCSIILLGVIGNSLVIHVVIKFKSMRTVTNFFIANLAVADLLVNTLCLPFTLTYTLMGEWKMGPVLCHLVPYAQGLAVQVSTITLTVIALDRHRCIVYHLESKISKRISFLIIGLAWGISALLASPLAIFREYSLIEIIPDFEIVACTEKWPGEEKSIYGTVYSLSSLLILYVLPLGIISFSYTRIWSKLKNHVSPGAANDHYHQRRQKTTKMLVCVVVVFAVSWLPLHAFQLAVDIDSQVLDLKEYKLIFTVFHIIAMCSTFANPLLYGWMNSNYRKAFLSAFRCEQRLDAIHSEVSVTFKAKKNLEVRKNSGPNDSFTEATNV

NTS1 (NT1) (h) = NTS1 (NT1) (h) (Homo sapiens (Human), UniProt P30989); assay: ExpresSProfile: neurotensin receptor 1, agonist radioligand; format: binding; conditions: Test Concentration 1.0E−05 M
Sequence of NTS1 (NT1) (h) (P30989 whole entry): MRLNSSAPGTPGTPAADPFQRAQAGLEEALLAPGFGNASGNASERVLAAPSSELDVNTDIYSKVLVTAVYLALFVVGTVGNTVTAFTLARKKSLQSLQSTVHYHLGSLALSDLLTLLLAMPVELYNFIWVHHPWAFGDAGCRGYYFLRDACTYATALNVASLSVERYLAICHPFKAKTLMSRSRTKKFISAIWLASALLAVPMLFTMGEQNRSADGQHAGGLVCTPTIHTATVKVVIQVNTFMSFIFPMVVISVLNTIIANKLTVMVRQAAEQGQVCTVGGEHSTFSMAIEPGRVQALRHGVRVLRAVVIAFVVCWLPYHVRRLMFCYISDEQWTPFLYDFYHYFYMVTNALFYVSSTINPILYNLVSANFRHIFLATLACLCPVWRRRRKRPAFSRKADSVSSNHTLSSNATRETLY

delta 2 (DOP) (h) = delta 2 (DOP) (h) (Homo sapiens (Human), UniProt P41143); assay: ExpresSProfile: delta2 opioid receptor, agonist radioligand; format: binding; conditions: Test Concentration 1.0E−05 M
Sequence of delta 2 (DOP) (h) (P41143 whole entry): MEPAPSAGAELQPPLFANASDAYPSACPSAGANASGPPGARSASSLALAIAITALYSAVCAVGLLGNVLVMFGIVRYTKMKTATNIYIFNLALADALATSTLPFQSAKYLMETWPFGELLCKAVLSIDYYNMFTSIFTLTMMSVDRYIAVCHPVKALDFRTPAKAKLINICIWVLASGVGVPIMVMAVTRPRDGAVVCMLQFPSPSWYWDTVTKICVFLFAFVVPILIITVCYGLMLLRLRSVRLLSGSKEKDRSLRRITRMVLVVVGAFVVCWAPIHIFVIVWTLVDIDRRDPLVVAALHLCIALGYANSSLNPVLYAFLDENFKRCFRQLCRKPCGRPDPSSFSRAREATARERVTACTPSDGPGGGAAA

5-HT1A (h) = 5-HT1A (h) (Homo sapiens (Human), UniProt P08908); assay: ExpresSProfile: 5-hydroxytryptamine receptor 1A, agonist radioligand; format: binding; conditions: Test Concentration 1.0E−05 M
Sequence of 5-HT1A (h) (P08908 whole entry): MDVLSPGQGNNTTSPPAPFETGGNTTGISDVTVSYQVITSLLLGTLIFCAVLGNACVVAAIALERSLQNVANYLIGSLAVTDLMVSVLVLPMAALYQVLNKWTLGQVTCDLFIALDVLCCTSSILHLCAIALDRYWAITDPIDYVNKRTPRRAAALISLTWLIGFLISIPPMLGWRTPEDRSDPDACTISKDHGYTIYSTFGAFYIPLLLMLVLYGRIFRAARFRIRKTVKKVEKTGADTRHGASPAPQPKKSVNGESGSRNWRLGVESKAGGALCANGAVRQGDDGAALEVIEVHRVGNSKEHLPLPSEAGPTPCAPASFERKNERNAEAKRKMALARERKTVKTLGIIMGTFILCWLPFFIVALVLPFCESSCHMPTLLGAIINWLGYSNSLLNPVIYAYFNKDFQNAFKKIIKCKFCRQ

5-HT1B = 5-HT1B (Rattus norvegicus, UniProt P28564); assay: ExpresSProfile: 5-hydroxytryptamine receptor 1B, antagonist radioligand; format: binding; conditions: Test Concentration 1.0E−05 M
5-HT3 (h) = 5-HT3 (h) (Homo sapiens (Human), UniProt P46098); assay: ExpresSProfile: 5-hydroxytryptamine channel 3, antagonist radioligand; format: binding; conditions: Test Concentration 1.0E−05 M
Sequence of 5-HT3 (h) (P46098 24-478): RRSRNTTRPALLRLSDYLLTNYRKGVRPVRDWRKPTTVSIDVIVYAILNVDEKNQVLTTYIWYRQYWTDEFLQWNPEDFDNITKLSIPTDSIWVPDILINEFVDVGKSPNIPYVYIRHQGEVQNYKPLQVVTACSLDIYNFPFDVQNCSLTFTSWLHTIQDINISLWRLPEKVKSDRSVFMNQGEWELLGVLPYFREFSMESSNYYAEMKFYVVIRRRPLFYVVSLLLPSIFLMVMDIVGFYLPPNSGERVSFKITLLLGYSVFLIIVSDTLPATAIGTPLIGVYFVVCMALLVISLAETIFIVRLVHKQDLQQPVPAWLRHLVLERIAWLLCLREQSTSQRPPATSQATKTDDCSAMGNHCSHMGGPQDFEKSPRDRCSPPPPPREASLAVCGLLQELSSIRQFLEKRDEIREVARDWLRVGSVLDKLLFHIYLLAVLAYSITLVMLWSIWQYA

V1a (h) = V1a (h) (Homo sapiens (Human), UniProt P37288); assay: ExpresSProfile: V1a, agonist radioligand; format: binding; conditions: Test Concentration 1.0E−05 M
Sequence of V1a (h) (P37288 whole entry): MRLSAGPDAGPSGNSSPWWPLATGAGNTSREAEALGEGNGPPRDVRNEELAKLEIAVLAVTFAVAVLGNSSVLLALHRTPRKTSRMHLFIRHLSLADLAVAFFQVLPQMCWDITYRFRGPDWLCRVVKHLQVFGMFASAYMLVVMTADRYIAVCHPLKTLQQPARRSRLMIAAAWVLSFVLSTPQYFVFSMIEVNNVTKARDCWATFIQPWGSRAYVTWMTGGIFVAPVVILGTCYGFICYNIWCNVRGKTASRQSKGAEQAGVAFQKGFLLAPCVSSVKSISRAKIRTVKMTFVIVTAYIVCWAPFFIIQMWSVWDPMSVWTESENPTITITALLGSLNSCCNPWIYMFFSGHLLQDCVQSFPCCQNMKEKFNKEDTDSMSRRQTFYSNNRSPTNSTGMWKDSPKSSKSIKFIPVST

KV channel = assay: ExpresSProfile: KV channel, antagonist radioligand; format: binding; conditions: Test Concentration 1.0E−05 M
SKCa channel = assay: ExpresSProfile: SKCa channel, antagonist radioligand; format: binding; conditions: Test Concentration 1.0E−05 M
Cl-channel (GABA-gated) = assay: ExpresSProfile: Cl-channel, antagonist radioligand; format: binding; conditions: Test Concentration 1.0E−05 M
[3] = read-out: % Inhibition of Control Specific Binding
[4] = read-out: % of Control Specific Binding 1st
[5] = read-out: % of Control Specific Binding 2nd
[6] = read-out: % of Control Specific Binding Mean

Sequence of NTR1 (P30989 whole entry): as the sequence (P30989 whole entry) above

SMILES: COc1cccc(OC)c1-c1cc(C(=O)NC2(C(=O)O)C3CC4CC(C3)CC2C4)nn1-c1ccc(C(=O)N(C)CCCN(C)CCCN(C)C(=O)CN2CCN(CC(=O)O)CCN(CC(=O)O)CCN(CC(=O)O)CC2)cc1C(C)C (stereo not shown) [(IIIa), 2-{[1-{4-[(3-{[3-(DOTA-methyl-amino)-propyl]-methyl-amino}-propyl)-methyl-carbamoyl]-2-isopropyl-phenyl}-5-(2,6-dimethoxy-phenyl)-1H-pyrazole-3-carbonyl]-amino}-adamantane-2-carboxylic acid]
- IC50 (NTR1): 2.9 nM
- stability in human plasma [1]: highly stable
- % remaining after 24 h incubation, Human plasma ([1]; 10 μM, 37° C., 24 h): >90%
- stability in mouse plasma [2]: highly stable
- % remaining after 24 h incubation, Mouse plasma ([2]; 10 μM, 37° C., 24 h): >80%
- inhibition at 10 µM (AT1 (h); [3]): -18%
- remaining activity at 10 µM (AT1 (h); [4]): 119%
- remaining activity at 10 µM (AT1 (h); [5]): 117%
- remaining activity at 10 µM (AT1 (h); [6]): 118%
- inhibition at 10 µM (GAL2 (h); [3]): 1%
- remaining activity at 10 µM (GAL2 (h); [4]): 96.5%
- remaining activity at 10 µM (GAL2 (h); [5]): 102%
- remaining activity at 10 µM (GAL2 (h); [6]): 99.3%
- inhibition at 10 µM (H2 (h); [3]): -4%
- remaining activity at 10 µM (H2 (h); [4]): 106%
- remaining activity at 10 µM (H2 (h); [5]): 102%
- remaining activity at 10 µM (H2 (h); [6]): 104%
- inhibition at 10 µM (Y1 (h); [3]): -34%
- remaining activity at 10 µM (Y1 (h); [4]): 128%
- remaining activity at 10 µM (Y1 (h); [5]): 141%
- remaining activity at 10 µM (Y1 (h); [6]): 134%
- inhibition at 10 µM (Y2 (h); [3]): -23%
- remaining activity at 10 µM (Y2 (h); [4]): 130%
- remaining activity at 10 µM (Y2 (h); [5]): 116%
- remaining activity at 10 µM (Y2 (h); [6]): 123%
- inhibition at 10 µM (NTS1 (NT1) (h); [3]): 99%
- remaining activity at 10 µM (NTS1 (NT1) (h); [4]): 2.7%
- remaining activity at 10 µM (NTS1 (NT1) (h); [5]): -0.1%
- remaining activity at 10 µM (NTS1 (NT1) (h); [6]): 1.3%
- inhibition at 10 µM (delta 2 (DOP) (h); [3]): -6%
- remaining activity at 10 µM (delta 2 (DOP) (h); [4]): 107%
- remaining activity at 10 µM (delta 2 (DOP) (h); [5]): 105%
- remaining activity at 10 µM (delta 2 (DOP) (h); [6]): 106%
- inhibition at 10 µM (5-HT1A (h); [3]): -29%
- remaining activity at 10 µM (5-HT1A (h); [4]): 130%
- remaining activity at 10 µM (5-HT1A (h); [5]): 129%
- remaining activity at 10 µM (5-HT1A (h); [6]): 129%
- inhibition at 10 µM (5-HT1B; [3]): -7%
- remaining activity at 10 µM (5-HT1B; [4]): 107%
- remaining activity at 10 µM (5-HT1B; [5]): 106%
- remaining activity at 10 µM (5-HT1B; [6]): 107%
- inhibition at 10 µM (5-HT3 (h); [3]): -8%
- remaining activity at 10 µM (5-HT3 (h); [4]): 108%
- remaining activity at 10 µM (5-HT3 (h); [5]): 108%
- remaining activity at 10 µM (5-HT3 (h); [6]): 108%
- inhibition at 10 µM (V1a (h); [3]): 6%
- remaining activity at 10 µM (V1a (h); [4]): 94.1%
- remaining activity at 10 µM (V1a (h); [5]): 93%
- remaining activity at 10 µM (V1a (h); [6]): 93.5%
- % Inhibition of Control Specific Binding (KV channel): −4%
- % of Control Specific Binding 1st (KV channel): 104.3%
- % of Control Specific Binding 2nd (KV channel): 104.2%
- % of Control Specific Binding Mean (KV channel): 104.3%
- % Inhibition of Control Specific Binding (SKCa channel): 4%
- % of Control Specific Binding 1st (SKCa channel): 97.3%
- % of Control Specific Binding 2nd (SKCa channel): 95.2%
- % of Control Specific Binding Mean (SKCa channel): 96.2%
- % Inhibition of Control Specific Binding (Cl-channel (GABA-gated)): 2%
- % of Control Specific Binding 1st (Cl-channel (GABA-gated)): 106.5%
- % of Control Specific Binding 2nd (Cl-channel (GABA-gated)): 89.1%
- % of Control Specific Binding Mean (Cl-channel (GABA-gated)): 97.8%
